The source of these data is ChEMBL document CHEMBL1130278, “Synthesis and structure-activity relationships of 3,7-dimethyl-1-propargylxanthine derivatives, A2A-selective adenosine receptor antagonists” (J Med Chem, 1997).

The target in assay [1] is T1, Adenosine receptor A1 (Rattus norvegicus, UniProt P25099).
T1 sequence (P25099 whole entry): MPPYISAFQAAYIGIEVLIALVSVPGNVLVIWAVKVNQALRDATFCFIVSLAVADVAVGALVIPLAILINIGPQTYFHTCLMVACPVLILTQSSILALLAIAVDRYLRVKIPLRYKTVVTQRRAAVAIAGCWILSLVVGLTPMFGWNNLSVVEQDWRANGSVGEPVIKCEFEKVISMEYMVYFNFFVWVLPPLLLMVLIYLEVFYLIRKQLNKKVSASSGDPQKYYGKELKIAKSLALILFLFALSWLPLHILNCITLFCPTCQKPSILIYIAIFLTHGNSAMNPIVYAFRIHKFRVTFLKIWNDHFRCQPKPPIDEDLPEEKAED
The experiment in a line: Ability to inhibit binding of [3H]CHA to adenosine A1 receptor in rat brain cortical membranes. Format: cell membranes, Membrane.

In assay [2] the target is T2, Adenosine receptor A2a (Rattus norvegicus, UniProt P30543).
Description: Ability to inhibit binding of [3H]-CGS- 21680 to adenosine A2A receptor in rat brain striatal membranes.
In assay [3] the target is T1, Adenosine receptor A1. The experiment in a line: Ability to inhibit binding of [3H]R-PIA to Adenosine A1 receptor in rat brain cortical membranes. Format: cell membranes, Membrane.
For assay [4], the target named is T2, Adenosine receptor A2a. This is another data set of the same source.
Description: Ability to inhibit binding of [3H]NECA to Adenosine A2A receptor in rat brain striatal membranes
Assay [5] addresses T3, Adenosine receptor A3 (Rattus norvegicus, UniProt P28647).
T3 sequence (P28647 whole entry): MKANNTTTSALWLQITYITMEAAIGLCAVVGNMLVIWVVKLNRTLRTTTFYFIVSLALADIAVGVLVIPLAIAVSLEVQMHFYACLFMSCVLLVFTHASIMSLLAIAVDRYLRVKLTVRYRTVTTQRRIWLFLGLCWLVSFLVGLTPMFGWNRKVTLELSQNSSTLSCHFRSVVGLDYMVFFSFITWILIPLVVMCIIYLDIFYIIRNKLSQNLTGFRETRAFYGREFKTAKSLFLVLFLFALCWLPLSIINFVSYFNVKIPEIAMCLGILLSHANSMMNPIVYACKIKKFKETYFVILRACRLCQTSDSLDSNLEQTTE
The experiment in a line: Inhibitory activity against rat adenosine A3 receptor; inactive up to 10 uM concentration; IA = Inactive.

Assay [6] concerns the target T4, Adenosine receptor A1 (Rattus norvegicus) (UniProt P25099).
T4 sequence (whole entry): T1 sequence (P25099 whole entry)
The experiment in a line: Inhibition of [3H]CHA binding to Adenosine A1 receptor of rat brain cortical membranes. Conditions: Membrane, concentration not given here; call rule not given here. Format: cell membranes.

Assay [7] addresses T5, Adenosine receptor A2b (Homo sapiens, UniProt P29275).
T5 sequence (P29275 whole entry): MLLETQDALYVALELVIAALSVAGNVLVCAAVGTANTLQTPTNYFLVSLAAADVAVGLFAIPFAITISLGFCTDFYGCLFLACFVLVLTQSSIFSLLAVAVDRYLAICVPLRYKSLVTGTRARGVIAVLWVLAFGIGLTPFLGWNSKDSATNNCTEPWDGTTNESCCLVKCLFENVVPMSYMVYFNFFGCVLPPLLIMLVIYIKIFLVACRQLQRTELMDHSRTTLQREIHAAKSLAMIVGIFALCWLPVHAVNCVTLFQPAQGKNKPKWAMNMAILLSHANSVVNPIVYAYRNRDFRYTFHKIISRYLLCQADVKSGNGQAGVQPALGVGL
Put plainly: Binding affinity for human Adenosine A2B receptor at 10 uM; IA = Inactive.

Assay [8] deals with T6, Adenosine receptor A3 (Homo sapiens, UniProt P0DMS8).
T6 sequence (P0DMS8 whole entry): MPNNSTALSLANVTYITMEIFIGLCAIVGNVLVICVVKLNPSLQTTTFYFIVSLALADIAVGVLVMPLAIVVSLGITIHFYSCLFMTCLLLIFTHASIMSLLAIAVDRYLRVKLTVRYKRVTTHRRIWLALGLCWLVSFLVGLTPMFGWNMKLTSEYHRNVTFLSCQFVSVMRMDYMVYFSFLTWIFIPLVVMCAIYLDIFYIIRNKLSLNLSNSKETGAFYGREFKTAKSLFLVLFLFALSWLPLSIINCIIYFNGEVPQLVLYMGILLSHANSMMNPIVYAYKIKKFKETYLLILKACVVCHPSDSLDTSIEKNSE
The experiment in a line: Binding affinity for human Adenosine A3 receptor at 10 uM; IA = Inactive.

T2 sequence (P30543 whole entry): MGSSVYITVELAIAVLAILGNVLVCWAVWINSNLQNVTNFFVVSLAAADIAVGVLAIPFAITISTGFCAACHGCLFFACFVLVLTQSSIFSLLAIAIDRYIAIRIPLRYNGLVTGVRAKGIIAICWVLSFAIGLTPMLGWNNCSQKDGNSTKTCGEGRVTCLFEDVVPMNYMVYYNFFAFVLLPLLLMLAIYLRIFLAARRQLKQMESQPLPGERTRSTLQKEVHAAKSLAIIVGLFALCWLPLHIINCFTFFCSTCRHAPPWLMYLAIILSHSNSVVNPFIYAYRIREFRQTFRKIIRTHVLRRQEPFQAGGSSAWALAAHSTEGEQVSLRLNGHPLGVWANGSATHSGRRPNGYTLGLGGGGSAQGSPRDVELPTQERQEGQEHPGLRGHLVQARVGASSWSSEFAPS

In the case of `C#CCn1c(=O)c2c(nc(/C=C/c3ccsc3)n2C)n(C)c1=O`, the Ki in assay [1] amounted to 750 nM; in assay [2], 24 nM.

As to `C#CCn1c(=O)c2c(nc(/C=C/c3cccs3)n2C)n(C)c1=O`, the Ki in assay [1] worked out at 4100 nM; in assay [2], 340 nM.

Turning to `C#CCn1c(=O)[nH]c2nc(-c3cccs3)[nH]c2c1=O`, the Ki in assay [1] came to 180 nM; in assay [3], 120 nM; in assay [2] it was 560 nM; in assay [4], 5100 nM.

For `C#CCn1c(=O)c2c(ncn2C)n(C)c1=O`, the Ki in assay [1] amounted to 12000 nM; in assay [2], 8600 nM.

Consider `C#CCn1c(=O)c2c(nc(/C=C/c3ccco3)n2C)n(C)c1=O`, for which the results for the inhibition constant Ki in assay [1] and in assay [2] were 1900 nM and 250 nM, respectively.

Consider `C=CCn1c(=O)c2c(nc(/C=C/c3ccccc3)n2C)n(C)c1=O`, for which the Ki came to 9200 nM in assay [1] and 63 nM in assay [2].

As to `C#CCn1c(=O)c2[nH]c(/C=C/c3cccc(Cl)c3)nc2n(C)c1=O`, the Ki in assay [3] was determined as 250 nM; in assay [4] it was 410 nM.

For `C#CCn1c(=O)c2c(nc(/C=C/c3ccc(OC)c(OC)c3)n2C)n(C)c1=O`, the Ki in assay [1] is 2500 nM; in assay [2], 15 nM.

Take `C#CCn1c(-c2ccccc2)nc2c1c(=O)n(C)c(=O)n2CC(C)C`: the Ki in assay [1] stood at 2800 nM; in assay [2] it was 3500 nM.

In assay [4], `C#CCn1c(=O)c2[nH]cnc2n(C)c1=O` had an inhibition constant (Ki) of 4800 nM.

For `Cn1c(=O)c2c(nc(/C=C/c3cccc(Cl)c3)n2C)n(C)c1=O`, the Ki result in assay [5] is “Not Active”. The compound also had an inhibition in assay [6] of 17%.

Regarding `COc1ccc(/C=C/c2nc3c(c(=O)n(C)c(=O)n3C)n2C)cc1OC`, the Ki in assay [1] amounted to 9600 nM; in assay [2] it was 18 nM.

As for `C#CCn1c(=O)c2[nH]c(/C=C/c3cccc(Cl)c3)nc2n(CC(C)C)c1=O`, the Ki in assay [1] was 83 nM; in assay [2], 46 nM.

As to `C#CCn1c(=O)c2c(nc(/C=C/c3cccc(Cl)c3)n2CC#C)n(C)c1=O`, the Ki was 200 nM in assay [1] and 61 nM in assay [2].

For the compound `CCCn1c(=O)c2c(nc(/C=C/c3cccc(Cl)c3)n2C)n(C)c1=O`, the Ki in assay [1] came to 540 nM; in assay [2] it was 31 nM.

`CCCn1c(=O)c2c(nc(/C=C/c3ccc(OC)c(OC)c3)n2C)n(CCC)c1=O` had a Ki in assay [1] of 260 nM.

As to `C#CCn1c(=O)c2c(nc(-c3ccccc3)n2C)n(C)c1=O`, the Ki was determined as 3200 nM in assay [1], 3300 nM in assay [2] and 6400 nM in assay [4].

Take `CC(C)Cn1c(=O)n(C)c(=O)c2c1nc(-c1ccccc1)n2C`: the Ki in assay [1] came out at 4400 nM; in assay [2] it was 14000 nM.

For `C#CCn1c(=O)c2[nH]cnc2n(Cc2ccccc2)c1=O`, the Ki is 860 nM in assay [1] and 880 nM in assay [2].

`C#CCn1c(=O)c2c(nc(/C=C/c3ccccc3)n2C)n(C)c1=O`: the Ki in assay [1] amounted to 1100 nM; in assay [3], 2700 nM; in assay [2], 27 nM; in assay [4], 140 nM.

On to `Cn1c(=O)c2c(nc(-c3ccccc3)n2C)n(C)c1=O`, for which the Ki in assay [1] stood at 33000 nM; in assay [2], 19000 nM; in assay [4], 25000 nM.

With `C#CCn1c(=O)c2c(nc(/C=C/c3cccc(Cl)c3)n2C)n(CC(C)C)c1=O`, the inhibitory constant (Ki) came to 240 nM in assay [1] and 15 nM in assay [2].

As for `C#CCn1c(=O)c2c(nc(-c3cccs3)n2C)n(C)c1=O`, the Ki was 950 nM in assay [1] and 1800 nM in assay [2].

On to `C#CCn1c(=O)c2c(nc(C3CCCCC3)n2C)n(C)c1=O`, for which the Ki in assay [1] worked out at 2800 nM; in assay [2], 4500 nM.

Turning to `C#CCn1c(=O)c2c(nc(/C=C/c3cccc(Cl)c3)n2C)n(C)c1=O`, the Ki in assay [1] worked out at 1300 nM; in assay [3] it was 2500 nM; in assay [2], 13 nM; in assay [4] it was 47 nM.

On to `C#CCn1c(=O)[nH]c2[nH]c(/C=C/c3ccccc3)nc2c1=O`, for which the Ki in assay [1] came out at 1300 nM; in assay [3], 2100 nM; in assay [2] it was 310 nM; in assay [4], 1900 nM.

For `C#CCn1c(=O)c2c(nc(/C=C/c3cccc(Cl)c3)n2C)n(Cc2ccccc2)c1=O`, the Ki turned out to be 2300 nM in assay [1] and 68 nM in assay [2].

`C#CCn1c(=O)c2c(nc(/C=C/c3cccc(Br)c3)n2C)n(C)c1=O`: the Ki result is “Not Active” in assay [7], “Not Active” in assay [8], 1200 nM in assay [1] and 8.2 nM in assay [2].

In the case of `C#CCn1c(=O)c2c(nc(/C=C/c3cccc(Cl)c3)n2C)n(CCC)c1=O`, the results for the Ki in assay [1] and in assay [2] were 102 nM and 5.1 nM, respectively.

In the case of `C#CCn1c(=O)c2[nH]c(/C=C/c3ccc4c(c3)OCO4)nc2n(C)c1=O`, the Ki in assay [1] turned out to be 840 nM; in assay [2], 170 nM.

On to `C#CCn1c(=O)c2c(nc(/C=C/c3ccc4c(c3)OCO4)n2C)n(C)c1=O`, for which the Ki was 1500 nM in assay [1] and 35 nM in assay [2].
